{"source": "patent US20230345940A1", "about": "“INSECTICIDE” (Western Sydney University, priority 2020, published 2023)", "test_system": "adult foraging workers of Apis mellifera", "experiment": "Acute toxicity to honey bees, Potter Spray Tower", "assay_type": "in vivo", "settings": "for Knockdown (K), no. of bees / Mortality (D), no. of bees: n = 10, extract 1.0% w/v, bifenthrin 0.05% w/v", "method": "The laboratory-based bioassay was performed to assess the acute toxicity of the extracts against adult foraging workers of Apis mellifera. 3 mL aliquots of P. jaceoides extract were applied at 1.0% a.i. w/v via a Potter Spray Tower, using the methodology previously described for the preparation and application of this plant extract to test insects.\nBifenthrin (CAS No 82657-04-3) 97.0% technical (Batch 50118) was sourced from Dr. Ehrenstorfer GmbH D-86190 Augsburg, Germany. A 0.05% w/v a.i. concentration was prepared by dissolving 0.013 g bifenthrin in 1 mL acetone, sonicating for 5 min and then diluted in a 25 mL volumetric flask with 200 ppm Triton X-100 in distilled water. It was applied using a 3 mL aliquot of the 0.05% a.i via a Potter Spray Tower; this concentration was based on recommended label rate in cotton. The control comprised 5 mL acetone and water-Triton X-100 mixture only; two controls were conducted.\nApis mellifera foraging workers for bioassay were collected from a strong, healthy hive at Western Sydney University apiary, at Richmond NSW, Australia, by blocking the hive entrance for 1 min and collecting foragers with a sweep net.\nThey were immediately transferred to a mesh cage (25×33×33 cm) and maintained in the laboratory at 24° C., where they were fed ad libidum sugar:water 1:1 w/v from cotton wool placed on the mesh at the top of the cage until bioassay, which was undertaken within 1 h of bee collection. Bees for bioassay were randomly collected from the cage using a 120 mL plastic specimen tube, and anaesthetised with medical grade CO2 for 30 s, then ten bees were placed on a 90 mm diameter Petri dish lined with filter paper. The dish with the bees was placed on the Potter Spray Tower stage, and the respective treatment applied, commencing with the control and finishing with bifenthrin treatment.\nImmediately after treatment, the treated bees were gently transferred to 250 mL glass beakers, fine nylon mesh was fitted to the top with a rubber band, and the bees fed were sugar:water as above and maintained at 26° C. in very low light. Bee activity was regularly observed and recorded, at 10 min intervals until 420 min (viz. 7 HAT), then less frequently until 48 HAT. By this time, there was bee mortality in both controls, so the investigation was terminated. Data recorded were signs of intoxication, knockdown (K) and mortality (D).", "data": [{"compound": "Cc1c(COC(=O)[C@@H]2[C@H](/C=C(\\Cl)C(F)(F)F)C2(C)C)cccc1-c1ccccc1", "note": "(racemic) [Bifenthrin]", "values": [{"measurement": "knockdown commenced", "setting": "0.05% w/v a.i.", "value": 10, "unit": "MAT"}, {"measurement": "mortality commenced", "setting": "0.05% w/v a.i.", "value": 90, "unit": "MAT"}, {"measurement": "time of 50% bee knockdown", "setting": "0.05% w/v a.i.", "value": "45-50 MAT"}, {"measurement": "time of 50% mortality", "setting": "0.05% w/v a.i.", "value": 240, "unit": "MAT"}, {"measurement": "Knockdown (K), no. of bees", "setting": "10 min", "value": 1, "unit": "K"}, {"measurement": "Knockdown (K), no. of bees", "setting": "20 min", "value": 1, "unit": "K"}, {"measurement": "Knockdown (K), no. of bees", "setting": "30 min", "value": 2, "unit": "K"}, {"measurement": "Knockdown (K), no. of bees", "setting": "40 min", "value": 3, "unit": "K"}, {"measurement": "Knockdown (K), no. of bees", "setting": "45 min", "value": 4, "unit": "K"}, {"measurement": "Knockdown (K), no. of bees", "setting": "50 min", "value": 6, "unit": "K"}, {"measurement": "Knockdown (K), no. of bees", "setting": "60 min", "value": 6, "unit": "K"}, {"measurement": "Knockdown (K), no. of bees", "setting": "70 min", "value": 6, "unit": "K"}, {"measurement": "Knockdown (K), no. of bees", "setting": "80 min", "value": 6, "unit": "K"}, {"measurement": "Knockdown (K), no. of bees", "setting": "90 min", "value": 5}, {"measurement": "Mortality (D), no. of bees", "setting": "90 min", "value": 1}, {"measurement": "Knockdown (K), no. of bees", "setting": "100 min", "value": "3K, 3D"}, {"measurement": "Mortality (D), no. of bees", "setting": "100 min", "value": "3K, 3D"}, {"measurement": "Knockdown (K), no. of bees", "setting": "110 min", "value": "4K,"}, {"measurement": "Knockdown (K), no. of bees", "setting": "120 min", "value": "4K,"}, {"measurement": "Knockdown (K), no. of bees", "setting": "130 min", "value": "4K,"}, {"measurement": "Knockdown (K), no. of bees", "setting": "140 min", "value": 3}, {"measurement": "Mortality (D), no. of bees", "setting": "140 min", "value": 4}, {"measurement": "Knockdown (K), no. of bees", "setting": "150 min", "value": 3}, {"measurement": "Mortality (D), no. of bees", "setting": "150 min", "value": 4}, {"measurement": "Knockdown (K), no. of bees", "setting": "160 min", "value": "4K, 4D"}, {"measurement": "Mortality (D), no. of bees", "setting": "160 min", "value": "4K, 4D"}, {"measurement": "Knockdown (K), no. of bees", "setting": "170 min", "value": "4K, 4D"}, {"measurement": "Mortality (D), no. of bees", "setting": "170 min", "value": "4K, 4D"}, {"measurement": "Knockdown (K), no. of bees", "setting": "180 min", "value": "4K, 4D"}, {"measurement": "Mortality (D), no. of bees", "setting": "180 min", "value": "4K, 4D"}, {"measurement": "Knockdown (K), no. of bees", "setting": "190 min", "value": "4K, 4D"}, {"measurement": "Mortality (D), no. of bees", "setting": "190 min", "value": "4K, 4D"}, {"measurement": "Knockdown (K), no. of bees", "setting": "200 min", "value": "4K, 4D"}, {"measurement": "Mortality (D), no. of bees", "setting": "200 min", "value": "4K, 4D"}, {"measurement": "Knockdown (K), no. of bees", "setting": "210 min", "value": "4K, 4D"}, {"measurement": "Mortality (D), no. of bees", "setting": "210 min", "value": "4K, 4D"}, {"measurement": "Knockdown (K), no. of bees", "setting": "220 min", "value": 5}, {"measurement": "Mortality (D), no. of bees", "setting": "220 min", "value": 4}, {"measurement": "Knockdown (K), no. of bees", "setting": "230 min", "value": 5}, {"measurement": "Mortality (D), no. of bees", "setting": "230 min", "value": 4}, {"measurement": "Knockdown (K), no. of bees", "setting": "240 min", "value": 4}, {"measurement": "Mortality (D), no. of bees", "setting": "240 min", "value": 5}, {"measurement": "Knockdown (K), no. of bees", "setting": "250 min", "value": 3}, {"measurement": "Mortality (D), no. of bees", "setting": "250 min", "value": 6}, {"measurement": "Knockdown (K), no. of bees", "setting": "260 min", "value": 3}, {"measurement": "Mortality (D), no. of bees", "setting": "260 min", "value": 6}, {"measurement": "Knockdown (K), no. of bees", "setting": "270 min", "value": 3}, {"measurement": "Mortality (D), no. of bees", "setting": "270 min", "value": 6}, {"measurement": "Knockdown (K), no. of bees", "setting": "280 min", "value": 3}, {"measurement": "Mortality (D), no. of bees", "setting": "280 min", "value": 6}, {"measurement": "Knockdown (K), no. of bees", "setting": "290 min", "value": 3}, {"measurement": "Mortality (D), no. of bees", "setting": "290 min", "value": 6}, {"measurement": "Knockdown (K), no. of bees", "setting": "300 min", "value": 3}, {"measurement": "Mortality (D), no. of bees", "setting": "300 min", "value": 6}, {"measurement": "Knockdown (K), no. of bees", "setting": "310 min", "value": 3}, {"measurement": "Mortality (D), no. of bees", "setting": "310 min", "value": 6}, {"measurement": "Knockdown (K), no. of bees", "setting": "320 min", "value": 3}, {"measurement": "Mortality (D), no. of bees", "setting": "320 min", "value": 6}, {"measurement": "Knockdown (K), no. of bees", "setting": "330 min", "value": 1}, {"measurement": "Mortality (D), no. of bees", "setting": "330 min", "value": 8}, {"measurement": "Knockdown (K), no. of bees", "setting": "340 min", "value": 1}, {"measurement": "Mortality (D), no. of bees", "setting": "340 min", "value": 8}, {"measurement": "Knockdown (K), no. of bees", "setting": "350 min", "value": 1}, {"measurement": "Mortality (D), no. of bees", "setting": "350 min", "value": 8}, {"measurement": "Knockdown (K), no. of bees", "setting": "360 min", "value": 1}, {"measurement": "Mortality (D), no. of bees", "setting": "360 min", "value": 8}, {"measurement": "Knockdown (K), no. of bees", "setting": "370 min", "value": 1}, {"measurement": "Mortality (D), no. of bees", "setting": "370 min", "value": 8}, {"measurement": "Knockdown (K), no. of bees", "setting": "380 min", "value": 1}, {"measurement": "Mortality (D), no. of bees", "setting": "380 min", "value": 8}, {"measurement": "Knockdown (K), no. of bees", "setting": "390 min", "value": 0}, {"measurement": "Mortality (D), no. of bees", "setting": "390 min", "value": 9}, {"measurement": "Knockdown (K), no. of bees", "setting": "400 min", "value": 0}, {"measurement": "Mortality (D), no. of bees", "setting": "400 min", "value": 9}, {"measurement": "Knockdown (K), no. of bees", "setting": "410 min", "value": 0}, {"measurement": "Mortality (D), no. of bees", "setting": "410 min", "value": 9}, {"measurement": "Knockdown (K), no. of bees", "setting": "420 min", "value": 0}, {"measurement": "Mortality (D), no. of bees", "setting": "420 min", "value": 9}, {"measurement": "Knockdown (K), no. of bees", "setting": "450 min", "value": 0}, {"measurement": "Mortality (D), no. of bees", "setting": "450 min", "value": 9}, {"measurement": "Mortality (D), no. of bees", "setting": "480 min", "value": 10, "unit": "D"}, {"measurement": "mortality", "setting": "by 480 MAT, 0.05% w/v a.i.", "value": 100, "unit": "%"}]}]}
